“And” between values parts separate entries of the source, which are not always exact repeats. Identical values can stand only once.
Tests used:
[1] = system: U937 myeloid leukemia cell line; assay: MTT cytotoxicity, U937; type: cell-based, human; conditions: U937, three days, read-out: EC50 (50% reduction in cell viability)
Description: (§1) The cytotoxic activity of various phospho-derivatives of branched-chain fatty acids (DP-BFAs) was assayed in vitro in cell cultures that include normal and malignant cell types. The following cell systems were used: • Primary fibroblasts (human) • Normal bone marrow (BM) cells (mouse) • Primary bronchial epithelial cells (human, from Clonetics, cat. no. CC-2541) • Caco-2—colon cancer cell line (human, ATTC, HTB-37) • C6 glioma cell line (rat, ATCC, CRL-2199) • Neuro2a—neuroblastoma cell line (mouse, ATCC, CCL-131) • SKBR-3—breast cancer cell line (human, ATTC, HTB-30) • HL60—myeloid leukemia cell line (human, ATCC, CCL-240) • U937—myeloid leukemia cell line (human)
(§2) Cells were seeded in a microtiter plate in MEM containing 2 mM L-glutamine, 100 units/ml penicillin, 100 ug/ml streptomycin and 10% FCS at 37° C. The cultured cells were incubated, during their linear growth phase in the absence (control group) or presence of various DP-BFAs as indicated. The final concentrations of the tested DP-BFAs ranged from 1.5 to 200 microMolars. At the end of the incubation period, which was five days for the bone marrow cells and three days for all the other cell lines, the cytotoxic effect of the added P-BFA on the cells was estimated by using the colorimetric MTT assay. The MTT assay (Mosmann (1983) J. Immunol Methods 65: 55–63) measures mitochondrial reductase activity and serves for quantitative assessment of cellular viability. Drug concentration that causes 50% reduction in cell viability in comparison to the control group, is defined as EC50. The EC50 values of the tested DP-BFA compounds were calculated from dose response curves established for each of the different assayed cell lines.
(§3) Each EC50 value is an average of EC50 values derived from 1–5 independent experiments.

[2] = system: blood brain barrier (BBB); assay: BBB permeability to EB-albumin and Fluorescein in normal rat brains; type: in vivo; conditions: compounds at EC50 (Mannitol 25%); for % EB/g brain: control 0.04 ± 0.01; for Brain fluorescein uptake (% of serum F-Na level): control 0.3 ± 0.08; for Ratio F-Na/EB (mean of individual ratios): control 9.5 ± 1.6
Text: The effect of various DP-BFAs on BBB permeabilization to molecules of different sizes was examined in vivo in the model system of normal rat brains.
The transport of two markers was followed: a) Evans blue bound to albumin (MW 70 kD) as an indicator for paracellular transport; and b) Fluorescein sodium salt (MW 376 D) that represents small size molecules.
The Evans blue dye (EB) and Fluorescein sodium salt (F—Na) were infused into the artery carotis externa over 30 seconds according to the protocol described above in Example 17. The test compounds were used at their EC50 concentrations. Control animals were treated with vehicle solution.
Evans blue extravasation is expressed as the percentage of the total amount of EB accumulated per one gram of brain tissue. The transport of fluorescein into the brain, which is dependent on the serum concentration of this molecule, is presented as percentage of the F—Na level in the serum.

[3] = system: blood brain barrier (BBB); assay: BBB permeabilization in rats, Evans blue extravasation into brain; type: in vivo, Sprague-Dawley rats; conditions: Table 6; for μg EB/g brain (at EC50): at EC50 (Mannitol at 25%)
Text: Permeabilization of the BBB by DP-BFA was investigated in rat model system by monitoring accumulation in the brain of two markers: a) Evans blue dye (EB), which rapidly binds in vivo with albumin (NW 70 kD) and is an indicator for paracellular transport; and b) Fluorescein sodium salt (F—Na), MW 376 D, which is transported via the cellular space, and enables monitoring transcellular transport. Upon BBB disruption the Evans blue-albumin complex irreversibly accumulates in the intercellular space of the brain. The much smaller tracer fluorescein may be transported intracellularly to occupy both inter and intracellular space in the brain.
Blood brain barrier permeabilization in Sprague-Dawley rats was induced by brief exposure to DP-BFA. The animals were anesthetized with Rampun-Imalgen and DP-BFA test compounds were administered via the external carotid artery retrograde to the brain (Smith, Q. R. Methods of study. In: Physiology and Pharmacology of the Blood-Brain Barrier. Ed. Bradbury M. W. B. Spinger-Verlag. Berlin-Heidelberg-NY; 1992: 24–52). The pterygo-palathina artery was ligated to avoid escape of infused solutions towards the external head vasculature. DP-BFA solutions were infused over a period of 30 seconds or half an hour, using a Harvard Apparatus Syringe Pump. Blood flow through carotid communis artery was interrupted only at the time of infusion.
All tested DP-BFA molecules were prepared from stock solutions in either water or ethanol by diluting 200–1000 fold into solution of isosmotic mannitol (5%) in Tromethamine buffer (Sigma) or PBS (pH 7.4)
The markers, Evans blue (EB, 25 mg/ml) and fluorescein (F—Na, 12.5 mg/ml), in 1 ml solution, were injected intravenously immediately following administration of the tested DP-BFA, or after a specific time interval if reversibility of action was investigated. Supportive i.v. infusion of F—Na (12.5 mg/ml–100 μl/min) was performed for 8 minutes. Brains were washed with saline solution (60 ml) 10 min after the intracarotid “flash”. Brain ipsilateral and contralateral hemispheres and tumors, where applicable, were homogenized separately with 50% trichloroacetic acid (TCA). The markers concentrations in the cortex and in tumors, where, applicable, were determined spectrofluorometrically (Uyama, O. et al., (1988) J. Cereb. Blood Flow Metab. 8, 282–284: Abraham et al., (1996) Neurosci. Lett. 208, 85–88). The markers content was calculated as μg marker per one-gram brain tissue. Standard error and Student's test for statistical significance were used.
The experiment was carried out on male Sprague-Dawley rats weighing 250–320 g. The procedure described above in Example 17 was followed.
The effect of the tested compounds on the BBB opening was evaluated by two parameters:
a) efficacy—The degree of BBB opening estimated in terms of accumulation of Evans Blue albumin (μg EB/g brain tissue); and
b) potency—measured in terms of EC50 and minimal effective concentration (MEC) values. EC50 is the concentration of a tested compound producing 50% of the maximal effect of Evans Blue extravasation.
The effect of various DP-BFAs on BBB permeability was tested in the model system of rat brains, as described above in Example 17. Efficacy, namely the level of the BBB opening was expressed as the amount of Evans blue accumulated in the brain (μg EB/g brain). Potency of the tested molecules was estimated by their calculated EC50 and minimal effective concentration (MEC) values.

Primary fibroblasts = assay: MTT cytotoxicity, normal primary fibroblasts; type: cell-based, human; conditions: three days, read-out: EC50 (50% reduction in cell viability)
Description: as §1, §2, §3

[4] = system: SKBR-3 breast cancer cell line; assay: MTT cytotoxicity, SKBR-3; type: cell-based, human; conditions: three days, read-out: EC50 (50% reduction in cell viability)
Description: as §1, §2, §3

[5] = system: Primary bronchial epithelial cells; assay: MTT cytotoxicity, normal primary epithelial cells; type: cell-based, human; conditions: Normal primary epithel, three days, read-out: EC50 (50% reduction in cell viability)
Description: as §1, §2, §3

[6] = system: Neuro2a neuroblastoma cell line; assay: MTT cytotoxicity, Neuro2a; type: cell-based, mouse; conditions: three days, read-out: EC50 (50% reduction in cell viability)
Description: as §1, §2, §3

[7] = system: Normal bone marrow (BM) cells; assay: MTT cytotoxicity, normal bone marrow cells; type: cell-based, mouse; conditions: five days, read-out: EC50 (50% reduction in cell viability)
Description: as §1, §2, §3

C6 glioma cell line = assay: MTT cytotoxicity, C6 glioma; type: cell-based, rat; conditions: three days, read-out: EC50 (50% reduction in cell viability)
Description: as §1, §2, §3

[8] = system: Caco-2 colon cancer cell line; assay: MTT cytotoxicity, Caco-2; type: cell-based, human; conditions: Caco-2, three days, read-out: EC50 (50% reduction in cell viability)
Description: as §1, §2, §3

[9] = system: blood tumor barrier (BTB) of C6 glioma; assay: BTB opening in C6 glioma-bearing rats, Evans blue accumulation in tumor; type: in vivo, Sprague Dawley rats; conditions: for Specificity Tumor/Non-tumor (T/NT): ratio of EB accumulated in tumor and non-tumor brain
Description: (§4) In order to study the ability of DP-BFA compounds to modulate blood tumor barrier (BTB), a model system of C6 glioma-bearing rats, was employed.
(§5) Sprague Dawley (SD) rats were inoculated with C6 gliosarcoma cells following the procedure described by Bartus et al. (Exp Neurol (1996); 142:14–28). A small burr-hole was made in the frontal scalp bone of the rat fixed in a stereotaxis apparatus. Using a Hamilton syringe, 10 μl or 5 μl of media, containing 2.5×10^5 C6 gliosarcoma cells were inoculated into the frontal cortex. Coordinates were 1 mm posterior of bregma, 2.5 mm—lateral, and 3 mm—depth. The needle remained in the place for 5 min. After removal of the needle, fascia and scalp were sutured. The rats were checked 6–8 days after inoculation, when tumors of sufficient size (20–60 mg) had developed. The tumor was weighed after F—Na visualization and dissection. Parts of the rats' brains were subject to histological examinations and monitored for Evans Blue and Fluorescein uptake into ipsilateral tumour tissue, peritumoural tissue and contralateral tissue.
(§6) The bilateral tumor model system of C6 glioma-bearing rats described in Example 23 above was employed for screening of various derivatives of DP-BFA for their ability to permeabilize the blood brain barrier (BBB) in comparison to their effect on the blood tumor barrier (BTB). The experimental procedure described in Example 23 was followed except that the tumor-bearing rats were further treated with DP-BFA. The tested compounds, at concentrations around their EC50 values, were unilaterally infused into the external carotis artery over 30 seconds as described in Example 17. Animals treated with vehicle only serve as a control group. Permeabilization effect was quantitated by measuring accumulation of albumin bound Evans blue dye in tumor (T) versus non-tumor (NT) tissues.
(§7) Specificity index is defined as the ratio between the levels of EB accumulated in tumor and those accumulated in non-tumor brain tissues (T/NT).

[10] = system: blood tumor barrier / blood brain barrier; assay: Unilateral administration in rats with bilateral C6 gliomas, Evans blue staining of brain sections; type: in vivo, SD rats; conditions: 10 μM 3,12-DEG-HPO4Na; 40 μM 3,12-Na; 25% mannitol; unilateral infusion
Description: FIGS. 2A–C depict Evans blue accumulation in brain sections of rats bearing bilateral gliomas following unilateral administration of a compound as follows: 10 μM 3,12-DEG-HPO4Na (FIG. 2A), 40 μM 3,12-Na (FIG. 2B) or mannitol 25% (FIG. 2C).
Evans Blue and Fluoroscein penetration into gliomas tumors was examined following unilateral infusion into the external carotis artery of either 10 μM 3,12-DEG-HPO4Na (FIG. 2A), 40 μM 3,12-Na BFA (FIG. 2B) or 25% mannitol (FIG. 2C). The relevant compound was infused into rat brains at 9 to 12 days following inoculation of C6 glioma cells as described in Example 23.

[11] = system: blood brain barrier (BBB); assay: BBB opening in C6 glioma-bearing rats, Evans blue accumulation in non-tumor brain; type: in vivo, Sprague Dawley rats; conditions: concentrations around EC50 (Mannitol 25%), unilateral 30 s infusion
Description: as §4, §5, §6, §7

Row | EC50 ([3]; rat brains, Evans blue extravasation, read-out: EQ50 (the source's name)) | Compound | EC50 [1] | % EB/g brain [2] | Brain fluorescein uptake (% of serum F-Na level) [2] | Ratio F-Na/EB (mean of individual ratios) [2] | μg EB/g brain (at EC50) [3] | MEC (minimal effective concentration) ([3]; concentration giving 3 μg EB/g brain) | EC50 (Primary fibroblasts) | EC50 [4] | EC50 [5] | EC50 [6] | EC50 [7] | EC50 (C6 glioma cell line) | EC50 [8] | Ratio F-Na/EB (mean of individual ratios) ([2]; listed as mannitol) | BTB EB μg/g Tumor ([9]; concentrations around EC50 (Mannitol 25%), unilateral 30 s infusion) | Specificity Tumor/Non-tumor (T/NT) [9] | Specificity Tumor/Non-tumor (T/NT) ([9]; listed as mannitol) | Evans Blue staining of tumor and non-tumor brain (FIG. 2, in words) [10] | BBB EB μg/g Non-tumor brain [11]
1 | 54 ± 5 µM | CCCCCCCCCCCCC(CCC)OCCOCCOP(=O)([O-])[O-].[Na+].[Na+] (stereo not drawn) [3,12-(ether)-DEG-PO4Na2, 2(4-Hexadecanoxy)ethoxyethyl Disodium Phosphate] | 10 µM | 4 ± 0.8% | 4.4 ± 0.9 % of the F—Na level in the ser | 1.1 and 1.1 ± 0.2 | 26 μg EB/g brain and 26 ± 5.2 μg EB/g brain | 7.3 ± 1.4 µM | 65 µM | 58 µM | > 200 µM | 37 µM | 68 µM | 40 µM | 47 µM | – | – | – | – | – | –
2 | – | OC[C@@H](O)[C@@H](O)[C@H](O)[C@H](O)CO [Mannitol, mannitol, reference compound] | – | 0.6 ± 0.21% | 2.4 ± 0.4 % of the F—Na level in the ser | 4.0 ± 0.5 | 10 ± 2 μg EB/g brain | – | – | – | – | – | – | – | – | 4 | 12 ± 2 µg/g | 2.1 ± 0.5 | about twice | equally permeabilized tumor and non-tumor brain tissues | 7 ± 2 µg/g

Source: patent publication US7186703B2, “Derivatives of branched-chain lipophilic molecules and uses thereof” (D-Pharm Ltd., priority 2000, dated 2007)
